The values that follow come from patent EP3556748A1, “HYDROXYPHENYL-TRIAZINE UV ABSORBERS” (BASF SE, priority 2018, dated 2019).

Molecules are shown by their SMILES.

The nature of the series: Solubility testing in cosmetic solvents / emollients (clear solution). It is filed as physicochemical. The following applies: 25°C. The method, then: The UV absorber mixture is suspended in 1200mg solvent in a glass container (sonication bath, vortex shaker). A magnetic stirring bar is added. The container is closed and stirred over night at room temperature (20-35°C).
Specification: clear solution
The solubility of Tinosorb S was determined as described in SOFW-Journal, 139, 7-2013, page 7-14.

As for `CCCCC(CC)COc1ccc(-c2nc(-c3ccc(OC)cc3)nc(-c3ccc(OCC(CC)CCCC)cc3O)n2)c(O)c1` (centres unmarked) [Tinosorb S, Bis-Ethylhexyloxyphenol Methoxyphenyl Triazine], the Solubility by setting is: (Cetiol AB (C12-15 Alkyl Benzoate)) 10% w/w; (Cetiol B (Dibutyl Adipate)) 12% w/w; (Cetiol CC (Dicaprylyl Carbonate)) 9% w/w; (Cetiol Ultimate (Undecane and Tridecane)) 1% w/w; (Dub DBS (Dibutyl Sebacate)) 9% w/w; (Finsolv EB: Ethylhexyl Benzoate) 17% w/w. Moreover, the Solubility turned out to be 5% w/w (Myritol 318 (Caprylic/Capric Triglyceride)) and 5% w/w (Myritol 331 (Cocoglycerides)).
